In one assay the test system is 4T1 cells. In words: 4T1 cell growth in 3D culture. Format: cell-based. The note with it: 3 μM GNF-2 added to 10 μM compound 4.
The test system of assay [1] is diverse panel of 200 kinases. In words: KINOMEscan ATP-site competition binding, diverse kinase panel profiling. The note with it: 10 μM.
The target of the next assay is ErbB3 (Homo sapiens, UniProt P21860). In words: KINOMEscan profiling, ErbB3. The note with it: 10 μM.
The test system of a further assay is MDA-MB-453. In words: cell growth inhibition assay. Format: cell-based. The following applies: read-out: GI50, MDA-MB-453; 72 h, WST-1.
A further assay deals with NIH-3T3. In words: cell growth inhibition assay. The following applies: read-out: GI50, NIH-3T3; 72 h, WST-1; non-cancer cell line. Format: cell-based.
The target in the next assay is ErbB2 (Homo sapiens, UniProt P04626). In words: KINOMEscan profiling, ErbB2. The note with it: 10 μM.
A further assay addresses c-Src (Gallus gallus, UniProt P00523). In words: continuous fluorimetric biochemical inhibition assay, c-Src. Set-up: species or system chicken. The following applies: read-out: Ki, c-Src; ATP = 100 μM, substrate peptide = 45 μM.
Another assay concerns HT-29. In words: cell growth inhibition assay. The class given is cell-based. The note with it: read-out: GI50, HT-29; 72 h, WST-1.
Another assay relates to MCF7. In words: cell growth inhibition assay. The class given is cell-based. The note with it: read-out: GI50, MCF7; 72 h, WST-1.
The next assay deals with SK-BR-3. In words: cell growth inhibition assay. Format: cell-based. The note with it: read-out: GI50, SK-BR-3; 72 h, WST-1.
Assay [2] deals with diverse panel of 200 kinases. The following applies: in this panel; cited from earlier work.

Some results are limits rather than exact numbers.

Chain of ErbB3 (P21860 20-1342): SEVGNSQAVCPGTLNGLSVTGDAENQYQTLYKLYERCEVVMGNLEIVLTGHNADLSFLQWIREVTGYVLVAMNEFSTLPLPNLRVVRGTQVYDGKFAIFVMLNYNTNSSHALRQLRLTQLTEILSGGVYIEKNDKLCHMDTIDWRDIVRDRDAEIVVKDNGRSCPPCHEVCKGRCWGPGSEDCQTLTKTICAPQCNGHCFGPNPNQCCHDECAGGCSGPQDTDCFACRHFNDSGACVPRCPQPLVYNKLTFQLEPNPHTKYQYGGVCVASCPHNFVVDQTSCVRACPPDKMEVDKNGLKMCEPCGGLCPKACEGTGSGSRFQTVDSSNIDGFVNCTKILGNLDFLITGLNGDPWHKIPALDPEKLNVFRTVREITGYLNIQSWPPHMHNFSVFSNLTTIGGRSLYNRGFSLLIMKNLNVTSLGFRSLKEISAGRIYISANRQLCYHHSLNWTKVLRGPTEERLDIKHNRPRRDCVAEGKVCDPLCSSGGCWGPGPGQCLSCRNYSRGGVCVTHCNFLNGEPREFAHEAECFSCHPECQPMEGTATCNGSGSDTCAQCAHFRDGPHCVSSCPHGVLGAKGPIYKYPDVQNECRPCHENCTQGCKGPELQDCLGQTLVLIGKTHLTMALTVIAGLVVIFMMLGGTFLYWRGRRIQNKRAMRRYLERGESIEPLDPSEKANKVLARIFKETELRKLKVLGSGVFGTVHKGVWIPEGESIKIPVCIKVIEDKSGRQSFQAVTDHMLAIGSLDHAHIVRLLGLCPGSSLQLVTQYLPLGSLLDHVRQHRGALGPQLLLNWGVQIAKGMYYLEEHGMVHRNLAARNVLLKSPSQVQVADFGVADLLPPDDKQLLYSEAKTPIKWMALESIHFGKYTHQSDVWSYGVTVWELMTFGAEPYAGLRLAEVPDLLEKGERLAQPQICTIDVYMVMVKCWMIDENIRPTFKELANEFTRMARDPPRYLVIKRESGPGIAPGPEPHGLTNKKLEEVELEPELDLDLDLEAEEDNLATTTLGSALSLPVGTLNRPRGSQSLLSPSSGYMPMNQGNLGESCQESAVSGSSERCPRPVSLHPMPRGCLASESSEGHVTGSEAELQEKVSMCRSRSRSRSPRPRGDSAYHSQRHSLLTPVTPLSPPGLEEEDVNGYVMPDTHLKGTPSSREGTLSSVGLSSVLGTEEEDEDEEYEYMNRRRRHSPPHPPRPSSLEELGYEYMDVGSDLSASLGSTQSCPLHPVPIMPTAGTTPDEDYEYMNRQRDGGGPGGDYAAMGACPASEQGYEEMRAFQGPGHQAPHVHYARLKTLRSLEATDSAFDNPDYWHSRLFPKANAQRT
Chain of ErbB2 (P04626 23-1255): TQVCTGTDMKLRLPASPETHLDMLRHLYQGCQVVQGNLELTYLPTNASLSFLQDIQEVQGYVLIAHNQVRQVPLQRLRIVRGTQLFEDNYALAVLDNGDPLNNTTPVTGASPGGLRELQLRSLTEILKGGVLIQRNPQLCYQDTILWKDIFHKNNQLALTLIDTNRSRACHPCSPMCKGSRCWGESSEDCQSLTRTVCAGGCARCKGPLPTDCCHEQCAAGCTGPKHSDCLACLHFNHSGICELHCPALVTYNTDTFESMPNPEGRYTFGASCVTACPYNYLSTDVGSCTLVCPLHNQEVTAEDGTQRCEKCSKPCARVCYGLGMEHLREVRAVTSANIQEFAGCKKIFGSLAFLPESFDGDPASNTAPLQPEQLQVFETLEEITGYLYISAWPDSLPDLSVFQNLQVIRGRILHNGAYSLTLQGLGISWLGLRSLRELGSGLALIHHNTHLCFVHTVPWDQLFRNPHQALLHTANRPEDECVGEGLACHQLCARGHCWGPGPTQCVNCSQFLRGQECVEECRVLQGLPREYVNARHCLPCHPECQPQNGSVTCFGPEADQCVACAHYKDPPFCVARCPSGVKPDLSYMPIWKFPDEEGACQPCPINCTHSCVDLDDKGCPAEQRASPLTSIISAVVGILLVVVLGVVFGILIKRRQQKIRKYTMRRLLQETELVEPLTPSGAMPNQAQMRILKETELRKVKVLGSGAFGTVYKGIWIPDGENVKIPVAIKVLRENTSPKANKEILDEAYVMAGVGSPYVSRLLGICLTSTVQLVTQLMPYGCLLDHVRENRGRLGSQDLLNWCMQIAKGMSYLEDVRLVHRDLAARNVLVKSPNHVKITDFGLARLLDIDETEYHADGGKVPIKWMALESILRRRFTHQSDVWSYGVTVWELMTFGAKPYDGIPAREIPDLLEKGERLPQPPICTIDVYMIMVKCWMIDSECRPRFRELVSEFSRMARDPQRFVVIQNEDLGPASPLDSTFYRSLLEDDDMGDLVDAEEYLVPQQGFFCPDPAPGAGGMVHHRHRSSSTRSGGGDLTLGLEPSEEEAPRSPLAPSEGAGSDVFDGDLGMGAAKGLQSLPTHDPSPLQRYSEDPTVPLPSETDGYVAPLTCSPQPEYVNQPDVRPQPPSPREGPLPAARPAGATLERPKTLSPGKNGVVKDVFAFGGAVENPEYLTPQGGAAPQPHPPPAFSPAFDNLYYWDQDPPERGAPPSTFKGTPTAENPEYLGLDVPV

For `NC(=O)c1cccc(-c2cc(Nc3ccc(OC(F)(F)F)cc3)ncn2)c1` [GNF-2], the “4T1 cell proliferation in 3D culture, effect of co-dosing” value in the assay with 4T1 cells was “mitigates effects of compound 4”.
Consider `CC(C)(C)n1nc(-c2ccc(Cl)cc2)c2c(N)ncnc21` [PP2], for which, in assay [1], the “number of kinases with >95% displacement from an immobilized ligand” value was 56. The “number of kinases with >99% displacement from an immobilized ligand” value in assay [1] is 24. In addition, the “inhibition of ErbB3 in profiling” value on ErbB3 is recorded as “significantly inhibits”. Further, the GI50 is 14 µM in the assay on MDA-MB-453; 17 µM in the assay with NIH-3T3; 48 µM with HT-29; greater than 100 µM in the assay with MCF7; greater than 100 µM with SK-BR-3. Further, the “inhibition of ErbB2 in profiling” value at ErbB2 was “significantly inhibits”. In addition, the Ki on c-Src was 0.033 µM.
`Cc1nc(Nc2ncc(C(=O)Nc3c(C)cccc3Cl)s2)cc(N2CCN(CCO)CC2)n1` [dasatinib]: in assay [2], the S35 selectivity score was 0.27.

These data come from publication PMC3423592 (ACS chemical biology, 2012).
